Results on eleven molecules are retold here after PMC6882365, “Directed evolution of the PcaV allosteric transcription factor to generate a biosensor for aromatic aldehydes” (Journal of Biological Engineering, 2019).

Series [1] has as its target T1, Van2 (PcaV mutant) (Streptomyces coelicolor, UniProt Q9XAM6, I110V/M113S/N114A).
T1 construct: gene SCO6704
The experiment in a line: cell-based. To be noted: read-out: E. coli RARE eGFP derepression reporter, 2.5 mM.

In series [2] the target is PcaV allosteric transcription factor from Streptomyces coelicolor (Streptomyces coelicolor). The experiment in a line: SEC-MALS; 0.75 mL at 1.5 mg/mL loaded on Superdex 10/300 GL; in the absence of the effector.
Another series has as its target T2, PcaV I110V (Streptomyces coelicolor, UniProt Q9XAM6, I110V).
T2 construct: gene SCO6704
The experiment in a line: cell-based. To be noted: read-out: Max/Min (2.5 mM induction) / PCA.

A further series concerns the target T3, PcaV N114A (Streptomyces coelicolor, UniProt Q9XAM6, N114A).
T3 construct: gene SCO6704
As to the kind of experiment: cell-based. To be noted: read-out: Max/Min (2.5 mM induction) / PCA.

Series [3] deals with T4, Van2 (PcaV mutant) (Streptomyces coelicolor, UniProt Q9XAM6, I110V/M113S/N114A).
T4 construct: gene SCO6704; His-TEV tag-cleaved purified protein, homodimer
T4 sequence (Q9XAM6 1-154 I110V/M113S/N114A): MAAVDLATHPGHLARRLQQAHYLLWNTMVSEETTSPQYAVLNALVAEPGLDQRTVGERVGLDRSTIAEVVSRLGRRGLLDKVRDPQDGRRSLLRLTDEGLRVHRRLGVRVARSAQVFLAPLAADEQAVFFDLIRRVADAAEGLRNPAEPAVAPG
As to the kind of experiment: EMSA titration ([…]), disruption of the Van2-PV DNA complex; no response in cells. The format is biochemical. (In general: A gel shift assay detects complexes by their altered migration in electrophoresis.)

For series [4], the target named is Van2 aTF (PcaV I110V M113S N114A) (Streptomyces coelicolor). As to the kind of experiment: SEC-MALS; 0.75 mL at 1.5 mg/mL loaded on Superdex 10/300 GL; in the absence of the effector.
The target in series [5] is T5, PcaV (Streptomyces coelicolor, UniProt Q9XAM6).
T5 construct: gene SCO6704
As to the kind of experiment: E. coli PcaV/PPV-eGFP derepression reporter, dose response. The format is cell-based.

The target in series [6] is T6, Van2 (Streptomyces coelicolor, UniProt Q9XAM6 1-154, I110V;M113S;N114A).
T6 sequence: T4 sequence (Q9XAM6 1-154 I110V/M113S/N114A)
The experiment in a line: SPR; no effector; 9.4-600 nM protein; SPR: 10 mM Hepes, 150 mM NaCl, pH 7.4 (temperature not stated); EMSA: 50 mM Tris-HCl, 50 mM KCl, 5 mM MgCl2, 1 mM EDTA, 5% glycerol, 0.1 ug poly(dI-dC), 1 mM DTT, 30 C 20 min (+30 min with ligand). The note with it: protein: recombinant; tags: N-terminal His-TEV, removed by TEV protease; chain copies: 2; label: 5' biotin on strand 1; blunt. In general terms: Surface plasmon resonance follows binding to a sensor surface in real time, without labels.

The target in series [7] is T7, PcaV (Streptomyces coelicolor, UniProt Q9XAM6 1-154).
T7 sequence: T4 sequence (Q9XAM6 1-154 I110V/M113S/N114A) with V110I, S113M, A114N
The experiment in a line: EMSA; no effector; 250 nM protein, 500 pM probe; SPR: 10 mM Hepes, 150 mM NaCl, pH 7.4 (temperature not stated); EMSA: 50 mM Tris-HCl, 50 mM KCl, 5 mM MgCl2, 1 mM EDTA, 5% glycerol, 0.1 ug poly(dI-dC), 1 mM DTT, 30 C 20 min (+30 min with ligand). The note with it: protein: recombinant; tags: N-terminal His-TEV, removed by TEV protease; chain copies: 2; label: 5' IRD700 on both strands; blunt.

The target in series [8] is T6, Van2. As to the kind of experiment: EMSA; no effector; 500 nM protein, 500 pM probe; SPR: 10 mM Hepes, 150 mM NaCl, pH 7.4 (temperature not stated); EMSA: 50 mM Tris-HCl, 50 mM KCl, 5 mM MgCl2, 1 mM EDTA, 5% glycerol, 0.1 ug poly(dI-dC), 1 mM DTT, 30 C 20 min (+30 min with ligand). To be noted: protein: recombinant; tags: N-terminal His-TEV, removed by TEV protease; chain copies: 2; label: 5' IRD700 on both strands; blunt.

Positions count from the first letter of the chain named.

For `O=Cc1ccccc1O` [2-hydroxybenzaldehyde], on Van2 (PcaV mutant) [1], the fold induction at 2500 µM is greater than 6.
Still for that read-out and setting: as for `Cc1cc(C=O)ccc1O` [4-hydroxy-3-methylbenzaldehyde], the figure is greater than 6.
With “PcaV allosteric transcription factor from Streptomyces coelicolor (natural protein)”, the stoichiometry N (usually a count of units in the complex or per binding partner) in series [2] came to 2.
Consider `O=C(O)c1ccc(O)c(O)c1` [PCA, 3,4-dihydroxybenzoic acid], for which the results for the fold induction at 2500 µM on PcaV I110V and on PcaV N114A were 304 and 18, respectively. For the same molecule, at Van2 (PcaV mutant) [3], the “EMSA titration (2.5-12.5 mM), disruption of the Van2-PV DNA complex; no response” value is recorded as “Van2 responds to vanillin but is still responsive to PCA in contradiction with the observed in vivo biosensor performance”.
For the molecule Van2 aTF (PcaV I110V M113S N114A), the stoichiometry N in series [4] worked out at 2.
For `O=C(O)c1cccc(O)c1` [3HB, 3-hydroxybenzoic acid], the “E. coli PcaV/PPV-eGFP derepression reporter, dose response” value on PcaV [5] was 3-hydroxybenzoic acid (3HB) and 4-hydroxybenzoic acid (4HB), as observed by fitting the dose response curves.
Turning to `O=Cc1ccc(O)c(O)c1` [3,4-dihydroxybenzaldehyde], the fold induction at 2500 µM at Van2 (PcaV mutant) [1] is greater than 6.
Take `O=C(O)c1ccc(O)cc1` [4HB, 4-hydroxybenzoic acid]: at PcaV [5], the “E. coli PcaV/PPV-eGFP derepression reporter, dose response” value was 3-hydroxybenzoic acid (3HB) and 4-hydroxybenzoic acid (4HB), as observed by fitting the dose response curves.

B1: PV Probe Bio (dsDNA)
DNA 1: TTGACTATACTCAGTGCCCTGACTATGATACT
DNA 2: AGTATCATAGTCAGGGCACTGAGTATAGTCAA
As to B1, the Kd (in general, the concentration at which binding is half-saturated) with Van2 [6] was 86.7 nM.

B2: PV Probe (IR700 duplex) (dsDNA)
DNA 1: B1 DNA 1
DNA 2: B1 DNA 2
B2: in the series with PcaV [7], the binding result is listed as “binds”.

B3: Rnd Probe (IR700 duplex) (dsDNA)
DNA 1: GAGTTAGAGTACGCGTTAAACACTTCACAGAT
DNA 2: ATCTGTGAAGTGTTTAACGCGTACTCTAACTC
In the case of B3, in the series with Van2 [8], the binding result is reported as “no binding”.
